Values of other authors as cited in patent EP4729597A1, “LOW-ALCOHOL BEER-LIKE BEVERAGE AND METHOD FOR PRODUCING LOW-ALCOHOL BEER-LIKE BEVERAGE” (Asahi Group Holdings, Ltd., priority 2023, dated 2024).
Where two headings read alike, the source gives them in different places.

[1] = Table 1, octanol/water partition coefficient

LogP [1] | LogP (Table 3) | LogP | Compound
3.6 | 3.6 |  | CC(C)=CCC/C(C)=C/CO [Geraniol]
4.0 |  |  | CC(=O)/C=C/C1=C(C)CCCC1(C)C [β-ionone]
 | 2.3 | 2.3 | CC(=O)OCCC(C)C [Isoamyl acetate]

Further lines, the compound ahead of its results:

Compound | LogP [1] | LogP (Table 3) | LogP
CCCCCCCC(=O)OCC [Ethyl octanoate] | 3.8 | 3.8 | 
CC(C)=CCCC(C)CCO (centres unmarked) [Citronellol] | 3.9 | 3.9 | 
C=CC(=C)CCC=C(C)C [Myrcene] | 4.3 | 4.3 | 
